Results published in patent US9890138B2, “Diaminopyrimidine derivatives and processes for the preparation thereof” (YUHAN CORPORATION, priority 2011, dated 2018).
Structures can show the parent of a compound that is named as a salt.

Target: T1, human 5-HT4(a) (Homo sapiens, UniProt Q13639)
T1 construct: host or cells: GeneBlAzer HTR4-CRE-bla CHO-K1 cells
Assay: Evaluation of agonistic activity in CHO-K1 cells expressing human 5-HT4(a) (GeneBlAzer HTR4-CRE-bla CHO-K1, beta-lactamase reporter)
Format: cell-based
Conditions: CHO-K1 cells stably expressing human 5-HT4(a)
Experimental: Test Example 1: Evaluation of Agonistic Activity in CHO-K1 Cells Expressing Human 5-HT4(a)
As CHO-K1 cells stably expressing human 5-HT4(a), we used the GeneBlAzer HTR4-CRE-bla CHO-K1 cells (Invitrogen Corp.). The cells were cultured, under the condition of 37[…] and 5% CO2, in a DMEM supplemented with 10% fetal bovine serum (FBS), 25 mM HEPES (pH7.4), 600 μg/ml hygromycin B, 0.1 mM non-essential amino acids, 100 unit/ml penicillin and 100 μg/ml streptomycin. Subcultures were performed three times per one week, each being at less than 80% confluence. At the previous day before treating test compounds, the cells were collected using 0.5% trypsin/EDTA and then diluted with a DMEM supplemented with 1% FBS, 25 mM HEPES, and 0.1 mM non-essential amino acids into 3.125×10^5 cells/ml. 32 μl of the diluted cells were added into 384-well plate (10^4 cells per well) and then incubated overnight. After the overnight culture, 8 μl of the medium having 1% of DMSO was added into the cell-free control well and the non-stimulating control well, respectively. 8 μl of the respective test compound dilutions (which had been prepared by diluting by 100-times with the medium as mentioned in the above) having 1% of DMSO were added to the respective remaining wells. After being cultured in the incubator for 5 hours, the wells of the 384-plate were treated with the substrate solution (8 μl per well) prepared according to the vendor's instruction (i.e., Invitrogen's instruction), and then incubated in the dark room for additional two hours. Agonistic activities on 5-HT4 receptor were evaluated, on the basis of fluorescence values of the cleavage-products by beta-lactamase. After exciting to 410 nm of wavelength using a fluorescence detector (Genios Pro), we measured the fluorescence values at two emission wavelengths (first wavelength: 465 nm, second wavelength: 535 nm). Data were analyzed on the basis of the ratio of fluorescence intensities of each well at the respective wavelengths. Each EC50 value was calculated by non-linear regression analysis using the “GraphPad Prism” program, based on the activities according to 8-different concentrations of the test compounds.

T1 sequence (Q13639 1-387 isoform Q13639-2): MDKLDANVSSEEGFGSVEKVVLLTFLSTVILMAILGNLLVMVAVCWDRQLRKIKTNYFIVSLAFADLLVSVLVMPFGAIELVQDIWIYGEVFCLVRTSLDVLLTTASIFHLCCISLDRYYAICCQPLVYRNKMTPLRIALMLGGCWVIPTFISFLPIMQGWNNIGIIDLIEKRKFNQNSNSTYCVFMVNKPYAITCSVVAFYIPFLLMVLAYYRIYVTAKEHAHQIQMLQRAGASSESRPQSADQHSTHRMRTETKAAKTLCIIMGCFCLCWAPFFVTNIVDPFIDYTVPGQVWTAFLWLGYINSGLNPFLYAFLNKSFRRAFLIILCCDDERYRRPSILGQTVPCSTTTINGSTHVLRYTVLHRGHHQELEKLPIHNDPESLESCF

Structure (SMILES) | EC50
CCCc1cc(N2CC[C@H](NC(CC(C)C)CC(C)C)C2)nc(Nc2cccc(C#N)c2)n1 [Example 129, (S)-3-{4-[3-(2,6-dimethylheptan-4-ylamino)pyrrolidin-1-yl]-6-propylpyrimidin-2-ylamino}benzonitrile] | 0.323 nM
CCCc1cc(N2CCC[C@H]2COC)nc(Nc2cccc(C#N)c2)n1 [Example 34, (S)-3-{4-[2-(methoxymethyl)pyrrolidin-1-yl]-6-propylpyrimidin-2-ylamino}benzonitrile] | 0.16 nM
CCCc1cc(N2CC[C@H](NC(C)=O)C2)nc(Nc2ccc(OC)c(N)c2)n1 [Example 289] | 0.062 nM
CCCc1cc(N2CC[C@H](N(CC3CC3)CC3CC3)C2)nc(Nc2cccc(C#N)c2)n1 [Example 100, (S)-3-(4-{3-[bis (cyclopropylmethyl)amino]pyrrolidin-1-yl}-6-propylpyrimidin-2-ylamino)benzonitrile] | 0.31 nM
CCCc1cc(N2CCC[C@H]2CO)nc(Nc2cccc(SC)c2)n1 [Example 195] | 0.25 nM
CCCc1cc(N2CC[C@H](N)C2)nc(Nc2ccc(C)c(N)c2)n1 [Example 369] | 0.049 nM
CCCc1cc(N2CC[C@H](NC(C)=O)C2)nc(Nc2ccc(C)c(C)c2)n1 [Example 281] | 0.196 nM
CCCc1cc(N2CC[C@H](NC(=O)C(C)C)C2)nc(Nc2cccc(C#N)c2)n1 [Example 81, (S)-N-{1-[2-(3-cyanophenylamino)-6-propylpyrimidin-4-yl]pyrrolidin-3-yl}isobutyramide] | 0.205 nM
CCCc1cc(N2CC[C@H](NCc3cccc(C(F)(F)F)c3)C2)nc(Nc2cccc(C#N)c2)n1 [Example 107, (S)-3-(4-propyl-6-{3-[3-(trifluoromethyl)benzylamino]pyrrolidin-1-yl}pyrimidin-2-ylamino)benzonitrile] | 0.42 nM
CCCc1cc(N2CC[C@H](NC(=O)C/C=C/c3ccccc3)C2)nc(Nc2cccc(C#N)c2)n1 [Example 79, (S,E)-N-{1-[2-(3-cyanophenylamino)-6-propylpyrimidin-4-yl]pyrrolidin-3-yl}-4-phenylbut-3-enamide] | 0.44 nM
CCCc1cc(N2CCC[C@H]2CO)nc(Nc2ccc(Cl)c(N)c2)n1 [Example 401] | 0.073 nM
CCCc1cc(N2CC[C@H](NC(=O)CCCNC(=O)OC(C)(C)C)C2)nc(Nc2cccc(C#N)c2)n1 [Example 166] | 0.103 nM
CCCc1cc(N2CC[C@H](NCc3cccs3)C2)nc(Nc2cccc(C#N)c2)n1 [Example 112, (S)-3-{4-propyl-6-[3-(thiophen-2-ylmethylamino)pyrrolidin-1-yl]pyrimidin-2-ylamino}benzonitrile] | 0.045 nM
CCCc1cc(N2CCC[C@H]2COC)nc(Nc2cccc(C(F)(F)F)c2)n1 [Example 36, (S)-4-[2-(methoxymethyl)pyrrolidin-1-yl]-6-propyl-N-[3-(trifluoromethyl)phenyl]pyrimidin-2-amine] | 0.243 nM
CCCc1cc(N2CC[C@H](NCc3cccc(F)c3)C2)nc(Nc2cccc(C#N)c2)n1 [Example 90, (S)-3-{4-[3-(3-fluorobenzylamino)pyrrolidin-1-yl]-6-propylpyrimidin-2-ylamino}benzonitrile] | 0.091 nM
CCCCc1cc(N2CC[C@H](N(CC)CC)C2)nc(Nc2cccc(C#N)c2)n1 [Example 236] | 0.209 nM
CCCc1cc(N2CC[C@H](NCC3CC3)C2)nc(Nc2cccc(N)c2)n1 [Example 384] | 0.077 nM
CCCc1cc(N2CC[C@@H](O)C2)nc(Nc2cccc(C#N)c2)n1 [Example 57, (R)-3-[4-(3-hydroxypyrrolidin-1-yl)-6-propylpyrimidin-2-ylamino]benzonitrile] | 0.389 nM
CCCc1cc(N2CCC[C@H]2C)nc(Nc2ccc3cc[nH]c3c2)n1 [Example 315] | 0.028 nM
CCCc1cc(N2CCC[C@H]2C)nc(Nc2ccc(Cl)c(N)c2)n1 [Example 332] | 0.046 nM
CCCc1cc(N2CCC[C@H]2COC)nc(Nc2ccc(Cl)c([N+](=O)[O-])c2)n1 [Example 33, (S)-N-(4-chloro-3-nitrophenyl)-4-[2-(methoxymethyl)pyrrolidin-1-yl]-6-propyl pyrimidin-2-amine] | 0.059 nM

Stronger by EC50, values ahead:

EC50 | Structure (SMILES)
0.024 nM | CCCc1cc(N2CCC[C@H]2C)nc(Nc2ccc(F)c(N)c2)n1 [Example 333]
0.023 nM | CCCc1cc(N2CC[C@H](NC(C)=O)C2)nc(Nc2cc(Cl)ccc2C)n1 [Example 255]
0.022 nM | CCCc1cc(N2CCC[C@H]2COC)nc(Nc2ccc(C)c(C#N)c2)n1 [Example 44, (S)-5-{4-[2-(methoxymethyl)pyrrolidin-1-yl]-6-propylpyrimidin-2-ylamino}-2-methylbenzonitrile]
0.019 nM | CCCc1cc(N2CCC[C@H]2CO)nc(Nc2ccc(N)c(C(F)(F)F)c2)n1 [Example 211]
0.018 nM | CCCc1cc(N2CC[C@H](NCc3ccc(N(C)C)cc3)C2)nc(Nc2cccc(C#N)c2)n1 [Example 110, (S)-3-(4-{3-[4-(dimethylamino)benzylamino]pyrrolidin-1-yl}-6-propylpyrimidin-2-ylamino)benzonitrile]
0.017 nM | CCCCc1cc(N2CC[C@H](NC(C)=O)C2)nc(Nc2cc(N)cc(C(F)(F)F)c2)n1 [Example 440]
0.016 nM | CCCc1cc(N2CC[C@H](N)C2)nc(Nc2ccc(C)c(Cl)c2)n1 [Example 349, (S)-4-(3-aminopyrrolidin-1-yl)-N-(3-chloro-4-methylphenyl)-6-propylpyrimidin-2-amine dihydrochloride]
0.016 nM | CCCc1cc(N2CC[C@H](NCC)C2)nc(Nc2cccc(C#N)c2)n1 [Example 55, (S)-3-{4-[3-(ethylamino)pyrrolidin-1-yl]-6-propylpyrimidin-2-ylamino}benzonitrile]
0.012 nM | CCCc1cc(N2CC[C@H](NC(C)=O)C2)nc(Nc2cccc([N+](=O)[O-])c2)n1 [Example 247]
0.011 nM | CCCc1cc(N2CC[C@H](NC3CCCCC3)C2)nc(Nc2cccc(C#N)c2)n1 [Example 135, (S)-3-{4-[3-(cyclohexylamino)pyrrolidin-1-yl]-6-propylpyrimidin-2-ylamino}benzonitrile]
0.0079 nM | CCCc1cc(N2CC[C@H](NC3CCCCC3)C2)nc(Nc2ccc(C)c(C#N)c2)n1 [Example 421]
0.0074 nM | CCCc1cc(N2CC[C@H](NCc3ccc[nH]3)C2)nc(Nc2ccc(C)c(C#N)c2)n1 [Example 416]
0.004 nM | CCCc1cc(N2CCC(NCC)C2)nc(Nc2ccc(C)c(C#N)c2)n1 (stereo not shown) [Example 173]
0.0038 nM | CCCCc1cc(N2CC[C@H](NC)C2)nc(Nc2ccc(F)c(C#N)c2)n1 [Example 455]
0.0026 nM | CCCCc1cc(N2CC[C@H](NC)C2)nc(Nc2ccc(F)c(N)c2)n1 [Example 456]
0.0023 nM | CCCCc1cc(N2CC[C@H](NC)C2)nc(Nc2ccc(N)c(C#N)c2)n1 [Example 447]
0.0019 nM | CCCCc1cc(N2CC[C@H](NCC)C2)nc(Nc2ccc(C)c(C#N)c2)n1 [Example 460]
0.0015 nM | CCCc1cc(N2CC[C@H](NCC3CC3)C2)nc(Nc2cccc(C#N)c2)n1 [Example 99, (S)-3-{4-[3-(cyclopropylmethylamino)pyrrolidin-1-yl]-6-propylpyrimidin-2-ylamino}benzonitrile]
0.0014 nM | CCCc1cc(N2CC[C@H](NC)C2)nc(Nc2ccc(N)c(C#N)c2)n1 [Example 486]
